Measurements reported in publication PMC7764612 (Pharmaceuticals, 2020).
“And” between values parts separate entries of the source, which are not always exact repeats. Equal entries are not always repeated. “Also recorded” adds a separate entry of the source.

Assays:
in vitro = settings: human
TBEV Hypr strain = format: cell-based, tick-borne encephalitis virus
TBEV Neudoerfl strain [1] = format: cell-based, tick-borne encephalitis virus
TBEV Neudoerfl strain [2] = test: microbe, parasite or virus in culture; format: cell-based, tick-borne encephalitis virus; settings: for IC50: Tick-borne encephalitis virus, A549, 72 h, read-out: IC50 (concentration to reduce infectious viral titers by 50%)
TBEV E protein = format: cell-based, tick-borne encephalitis virus

Structure (SMILES)	CC50 (in vitro)	melting point	TBEV-induced cytopathic effect / rate of cell death (TBEV Hypr strain)	Inhibition of TBEV propagation (size and number of plaques) (TBEV Neudoerfl strain [1])	Plaques detected in dose-response plaque reduction assay (TBEV Neudoerfl strain [1])	Reduction in the number of plaques (TBEV Neudoerfl strain [1])	Effect on TBEV titers in dose-response assay (TBEV Neudoerfl strain [2])	Reduction in viral titer (TBEV Neudoerfl strain [2])	SI (selectivity index: CC50/IC50) (TBEV Neudoerfl strain [2])	Virus detected in culture supernatant (viral titer) (TBEV Neudoerfl strain [2])	IC50 (TBEV Neudoerfl strain [2])	Production of TBEV E protein (Western blot) (TBEV E protein)
CC(=O)OC[C@H]1O[C@@H](NC(=O)[C@H]2O[C@@H](n3ccc(=O)[nH]c3=O)[C@@H]3OC(C)(C)O[C@@H]32)[C@H](OC(C)=O)[C@@H](OC(C)=O)[C@@H]1OC(C)=O [Compound 13]	129 µM	–	–	–	–	–	–	–	–	–	–	–
CC1(C)O[C@@H]2[C@H](O1)[C@@H](C(=O)N[C@@H]1O[C@H](COCc3ccccc3)[C@@H](OCc3ccccc3)[C@H](OCc3ccccc3)[C@H]1OCc1ccccc1)O[C@H]2n1ccc(=O)[nH]c1=O [Compound 15, N-(2″,3″,4″,6″-tetra-O-benzyl-β-D-galactopyranosyl)-2′,3′-O-isopropylidene-uridine-5′-amide]	153 µM	–	–	–	–	–	–	–	–	–	–	–
CC(=O)OC[C@H]1O[C@@H](OCc2cn(C[C@H]3O[C@@H](n4ccc(=O)[nH]c4=O)[C@@H]4OC(C)(C)O[C@@H]43)nn2)[C@H](OC(C)=O)[C@@H](OC(C)=O)[C@H]1OC(C)=O [Compound 23, 2′,3′-O-isopropylidene-5′-deoxy-5′-[4-(2″,3″,4″,6″-tetra-O-acetyl-β-D-galactopyranosyl-oxymethyl)-1,2-3-triazol-1-yl]uridine]	157 µM	101 to 105 °C	–	–	–	–	–	–	–	–	–	–
CC(=O)OC[C@H]1O[C@@H](n2cc(CNC(=O)[C@H]3O[C@@H](n4ccc(=O)[nH]c4=O)[C@@H]4OC(C)(C)O[C@@H]43)nn2)[C@H](OC(C)=O)[C@@H](OC(C)=O)[C@H]1OC(C)=O [Compound 17]	137 µM	–	–	–	–	–	–	–	–	–	–	–
CC(=O)OC[C@H]1O[C@@H](n2cc(COC[C@H]3O[C@@H](n4ccc(=O)[nH]c4=O)[C@H](O[Si](C)(C)C(C)(C)C)[C@@H]3O[Si](C)(C)C(C)(C)C)nn2)[C@H](OC(C)=O)[C@@H](OC(C)=O)[C@@H]1OC(C)=O [Compound 20, 1-(2″,3″,4″,6″-tetra-O-acetyl-β-D-glucopyranosyl)-4-(2′,3′-di-O-tert-butyldimethylsilyl-uridine-5′-O-methyl)-[1,2,3]-triazole]	184 µM	–	nearly completely inhibited; also recorded: significantly increased cell survival	nearly a complete inhibition of TBEV propagation	no plaques were detected	96% and 75%	significantly reduced TBEV titers in a dose-dependent manner	10^3 fold	49.7	no virus was detected	3.7 µM	complete inhibition of viral protein synthesis
CC(=O)OC[C@H]1O[C@@H](n2cc(CNC(=O)[C@H]3O[C@@H](n4ccc(=O)[nH]c4=O)[C@H](O[Si](C)(C)C(C)(C)C)[C@@H]3O[Si](C)(C)C(C)(C)C)nn2)[C@H](OC(C)=O)[C@@H](OC(C)=O)[C@H]1OC(C)=O [Compound 19, 1-(2″,3″,4″,6″-tetra-O-acetyl-β-D-galactopyranosyl)-4-(2′,3′-di-O-tert-butyldimethylsilyl-uridine-5′-carbonylaminomethyl)-[1,2,3]-triazole]	77 µM	–	strongly reduced; also recorded: significantly increased cell survival	effectively inhibited virus propagation	–	81%	significantly reduced TBEV titers in a dose-dependent manner	10^3–10^6 fold	5.1	–	15.1 µM	dose-dependent reduction
CC(=O)OC[C@H]1O[C@@H](OCc2cn(C[C@H]3O[C@@H](n4ccc(=O)[nH]c4=O)[C@@H]4OC(C)(C)O[C@@H]43)nn2)[C@H](OC(C)=O)[C@@H](OC(C)=O)[C@@H]1OC(C)=O [Compound 22, 2′,3′-O-isopropylidene-5′-deoxy-5′-[4-(2″,3″,4″,6″-tetra-O-acetyl-β-D-glucopyranosyl-oxymethyl)-1,2-3-triazol-1-yl]uridine]	173 µM	108 to 110 °C	–	–	–	–	–	–	–	–	–	–
CC(=O)OC[C@H]1O[C@@H](n2cc(CNC(=O)[C@H]3O[C@@H](n4ccc(=O)[nH]c4=O)[C@@H]4OC(C)(C)O[C@@H]43)nn2)[C@H](OC(C)=O)[C@@H](OC(C)=O)[C@@H]1OC(C)=O [Compound 16]	136 µM	–	–	–	–	–	–	–	–	–	–	–
CC(=O)OC[C@H]1O[C@@H](n2cc(COC[C@H]3O[C@@H](n4ccc(=O)[nH]c4=O)[C@H](O[Si](C)(C)C(C)(C)C)[C@@H]3O[Si](C)(C)C(C)(C)C)nn2)[C@H](OC(C)=O)[C@@H](OC(C)=O)[C@H]1OC(C)=O [Compound 21, 1-(2″,3″,4″,6″-tetra-O-acetyl-β-D-galactopyranosyl)-4-(2′,3′-di-O-tert-butyldimethylsilyl-uridine-5′-O-methyl)-[1,2,3]-triazole]	116 µM	–	nearly completely inhibited; also recorded: significantly increased cell survival	nearly a complete inhibition of TBEV propagation	no plaques were detected	92% and 62%	significantly reduced TBEV titers in a dose-dependent manner	10^4 fold	24.7	no virus was detected	4.7 µM	dose-dependent reduction; also recorded: greatly decreased at all tested concentrations
CC(=O)OC[C@H]1O[C@@H](n2cc(CNC(=O)[C@H]3O[C@@H](n4ccc(=O)[nH]c4=O)[C@H](O[Si](C)(C)C(C)(C)C)[C@@H]3O[Si](C)(C)C(C)(C)C)nn2)[C@H](OC(C)=O)[C@@H](OC(C)=O)[C@@H]1OC(C)=O [Compound 18, 1-(2″,3″,4″,6″-tetra-O-acetyl-β-D-glucopyranosyl)-4-(2′,3′-di-O-tert-butyldimethylsilyl-uridine-5′-carbonylaminomethyl)-[1,2,3]-triazole]	69 µM	–	strongly reduced; also recorded: significantly increased cell survival	effectively inhibited virus propagation	–	98%	significantly reduced TBEV titers in a dose-dependent manner	10^3–10^6 fold	7.4	–	9.3 µM	dose-dependent reduction
CC(=O)OC[C@H]1O[C@@H](NC(=O)[C@H]2O[C@@H](n3ccc(=O)[nH]c3=O)[C@@H]3OC(C)(C)O[C@@H]32)[C@H](OC(C)=O)[C@@H](OC(C)=O)[C@H]1OC(C)=O [Compound 14]	114 µM	–	–	–	–	–	–	–	–	–	–	–
